Measurements from patent publication US20260015322A1, “DELIVERY OF THERAPEUTIC ALKALOID COMPOUNDS” (priority 2022, published 2026).

How the values were obtained:
[1] = Plasma Stability Assay (Example A2), mouse plasma; type: in vitro ADME; conditions: mouse
Method: Each test was carried out in duplicate for each time point; 0 min, 15 min, 30 min, 60 min, 120, 240 min. […]

[2] = Pharmacokinetics of 358, single IV 2 mg/kg, plasma and brain; type: in vivo, male C57BL/6 mice; conditions: 358 IV 2 mg/kg, mice
Method: Total fifteen male mice were used in this study with n=3 mice/time point with sparse sampling study design. Animals were administered through intravenous route with solution formulation of 358 at 2 mg/kg dose.
The extraction procedure for plasma/brain samples and the spiked plasma/brain calibration standards were identical (PMSF Stabilized Plasma and Brain used for Preparation of calibration standards):
A 20 μL of study sample plasma/brain or spiked plasma/brain calibration standard was added to individual pre-labeled micro-centrifuge tubes followed by 200 μL of internal standard prepared in acetonitrile (Rosuvastatin+Cetrizine, 50 ng/mL) was added except for blank, where 200 μL of acetonitrile was added. Samples were vortexed for 5 minutes. Samples were centrifuged for 10 minutes at a speed of 4000 rpm at 4° C. Following centrifugation, 200 μL of clear supernatant was transferred in 96 well plates and analyzed using LC-MS/MS.
Note: Brain samples were diluted (1-part of tissue: 2-part of buffer) and homogenized. The homogenate was submitted for bioanalysis and the concentrations (ng/mL) received were corrected with dilution factor (3×) and the final reported concentrations were represented in ng/g.
The plasma and brain concentration-time data of 358 and 001 were used for the pharmacokinetic analysis.

COc1ccc([C@@]23CCC(OC(=O)OC(C)(C)C)=C[C@@H]2N(C)CC3)cc1OC [Compound 358, [(3aS,7aS)-3a-(3,4-dimethoxyphenyl)-1-methyl-3,4,5,7a-tetrahydro-2H-indol-6-yl]tert-butyl carbonate]
Metabolite (%) ([1]; 0 min, 5 µM): 58.8% | Metabolite (%) ([1]; 15 min, 5 µM): 65.4% | Metabolite (%) ([1]; 30 min, 5 µM): 73.2% | Metabolite (%) ([1]; 60 min): 76.9% | Metabolite (%) ([1]; 120 min): 61.8% | Metabolite (%) ([1]; 240 min): 62.2% | brain concentrations quantifiable up to [2]: ≤ 0.08 h | plasma concentrations quantifiable up to [2]: up to 0.25 h
